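The compound was tested at five concentrations on cells cultured in 96-well plates, with a 48-hour exposure period. TGI is the concentration that stops growth completely.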
Columns and labels:
Assay in all cases: inhibition of tumour cell growth, NCI panel, 48 h
A498 renal = tested on: A498 renal
LXFL 529 NSCLC = tested on: LXFL 529 NSCLC
M19-MEL melanoma = tested on: M19-MEL melanoma
SNB-78 CNS = tested on: SNB-78 CNS

| Structure (SMILES) | TGI (A498 renal) | TGI (LXFL 529 NSCLC) | TGI (M19-MEL melanoma) | TGI (SNB-78 CNS) |
| --- | --- | --- | --- | --- |
| C=C(C)[C@@H]1CCC2=C[C@H](CC(C)=CC3=CC(C)=C(O3)[C@@H]1OC)OC2=O | > 100 µM |  |  |  |
| O=c1c2ccccc2[nH]c2cc(O)cc(O)c12 |  | > 100 µM | > 100 µM | > 100 µM |
